From ChEMBL document CHEMBL5506008, “Synthesis and biological evaluation of 1-phenyl-tetrahydro-β-carboline-based first dual PRMT5/EGFR inhibitors as potential anticancer agents” (Eur J Med Chem, 2024)
Activity calls are given as the source filed them. The calls are words filed in the database; no cut-off is given here.

Experiments:
[1] = test system: MCF7; assay: Induction of apoptosis in human MCF7 cells assessed as late apoptotic cells at 3.75 uM measured after 48 hrs by Annexin V-FITC staining based flow cytometry analysis (reference value: 0.14%); assay type: functional
[2] = test system: MCF7; assay: Induction of cell cycle arrest in human MCF7 cells assessed as accumulation of cells at G2 phase at 3.75 uM incubated for 48 hrs by PI/Rnase staining based flow cytometry analysis (reference value: […]%); assay type: functional
[3] = Cmax in male Sprague-Dawley rat at 10 mg/kg, po administered as single dose by LC-MS/MS analysis; assay type: ADME, organism-based; details: in vivo
[4] = AUC (0 to infinity) in male Sprague-Dawley rat at 10 mg/kg, po administered as single dose by LC-MS/MS analysis; assay type: ADME, organism-based; details: in vivo
[5] = Metabolic stability in human liver microsomes assessed as compound remaining at […] measured after 30 mins in presence of NADPH by LC-MS/MS analysis; assay type: ADME, Microsome; details: read-out: Stability
[6] = test system: MCF7; assay: Induction of cell cycle arrest in human MCF7 cells assessed as accumulation of cells at S phase at 3.75 uM incubated for 48 hrs by PI/RNase staining based flow cytometry analysis (reference value: 44.87%); assay type: functional
[7] = test system: MCF7; assay: Induction of apoptosis in human MCF7 cells assessed as late apoptotic cells at 7.5 uM measured after 48 hrs by Annexin V-FITC staining based flow cytometry analysis (reference value: 0.14%); assay type: functional
[8] = Volume of distribution in male Sprague-Dawley rat at 2 mg/kg, iv administered via tail vein by LC-MS/MS analysis; assay type: ADME, organism-based; details: in vivo
[9] = test system: MDA-MB-231; assay: Antiproliferative activity against human MDA-MB-231 cells assessed as inhibition of cell growth by CCK-8 assay
[10] = test system: MCF7; assay: Induction of cell cycle arrest in human MCF7 cells assessed as accumulation of cells at G2 phase at 7.5 uM incubated for 48 hrs by PI/Rnase staining based flow cytometry analysis (reference value: […]%); assay type: functional
[11] = test system: MCF7; assay: Induction of cell cycle arrest in human MCF7 cells assessed as accumulation of cells at G1 phase at 7.5 uM incubated for 48 hrs by PI/RNase staining based flow cytometry analysis (reference value: 48.01%); assay type: functional
[12] = test system: MCF7; assay: Induction of apoptosis in human MCF7 cells assessed as live cells at 15 uM measured after 48 hrs by Annexin V-FITC staining based flow cytometry analysis (reference value: 99.26%); assay type: functional
[13] = test system: MCF7; assay: Antiproliferative activity against human MCF7 cells assessed as inhibition of cell growth by CCK-8 assay
[14] = test system: MCF7; assay: Antitumor activity against orthotopic human MCF7 cells xenografted in CB17SCID mouse assessed as inhibition of tumor growth at 10 to 20 mg/kg, po qd administered once daily for 21 days starting from 3 days post tumor inoculation and measured every day by calipers method; assay type: functional, organism-based; details: dose 10-20 mg/kg, time 21.0 day
[15] = test system: MCF7; assay: Induction of apoptosis in human MCF7 cells assessed as late apoptotic cells at 15 uM measured after 48 hrs by Annexin V-FITC staining based flow cytometry analysis (reference value: 0.14%); assay type: functional
[16] = target: Protein arginine N-methyltransferase 1 (Homo sapiens, UniProt Q99873); assay: Inhibition of PRMT1 (unknown origin) using [3H]SAM as substrate preincubated for 15 mins followed by substrate addition and measured after 60 mins by microbeta scintillation counting analysis
[17] = Bioavailability in male Sprague-Dawley rat at 2 mg/kg, iv administered via tail vein by LC-MS/MS analysis; assay type: ADME, organism-based; details: in vivo
[18] = AUC (0 to infinity) in male Sprague-Dawley rat at 2 mg/kg, iv administered via tail vein by LC-MS/MS analysis; assay type: ADME, organism-based; details: in vivo
[19] = test system: MCF7; assay: Induction of apoptosis in human MCF7 cells assessed as dead cells at 15 uM measured after 48 hrs by Annexin V-FITC staining based flow cytometry analysis (reference value: 0.02%); assay type: functional
[20] = test system: MCF7; assay: Induction of apoptosis in human MCF7 cells assessed as early apoptotic cells at 15 uM measured after 48 hrs by Annexin V-FITC staining based flow cytometry analysis (reference value: 0.58%); assay type: functional
[21] = test system: MCF7; assay: Induction of apoptosis in human MCF7 cells assessed as dead cells at 3.75 uM measured after 48 hrs by Annexin V-FITC staining based flow cytometry analysis (reference value: 0.02%); assay type: functional
[22] = target: T1, Protein arginine N-methyltransferase 5 (Homo sapiens, UniProt O14744); assay: Inhibition of PRMT5 in human MCF7 cells using SmD3 as substrate assessed as reduction in symmetric arginine dimethylation by measuring reduction in SmD3me2 level incubated for 72 hrs by Western blot analysis; assay type: cell-based; details: dose 3.75-15 µM
[23] = test system: MCF7; assay: Induction of cell cycle arrest in human MCF7 cells assessed as accumulation of cells at S phase at 7.5 uM incubated for 48 hrs by PI/RNase staining based flow cytometry analysis (reference value: 44.87%); assay type: functional
[24] = target: Receptor tyrosine-protein kinase erbB-4 (Homo sapiens, UniProt Q15303); assay: Inhibition of wild type GST-tagged HER4 catalytic domain (unknown origin) expressed in insect cells using poly(Glu-Tyr) as substrate incubated for 6 mins by ELISA; set-up: species or system Insect cell
[25] = test system: HepG2; assay: Antiproliferative activity against human HepG2 cells assessed as inhibition of cell growth by CCK-8 assay
[26] = Clearance in male Sprague-Dawley rat at 10 mg/kg, po administered as single dose by LC-MS/MS analysis; assay type: ADME, organism-based; details: in vivo
[27] = test system: HeLa; assay: Antiproliferative activity against human HeLa cells assessed as inhibition of cell growth by CCK-8 assay
[28] = Cmax in male Sprague-Dawley rat at 2 mg/kg, iv administered via tail vein by LC-MS/MS analysis; assay type: ADME, organism-based; details: in vivo
[29] = test system: MCF7; assay: Induction of apoptosis in human MCF7 cells assessed as early apoptotic cells at 7.5 uM measured after 48 hrs by Annexin V-FITC staining based flow cytometry analysis (reference value: 0.58%); assay type: functional
[30] = target: T1, Protein arginine N-methyltransferase 5; assay: Inhibition of PRMT5 (unknown origin) by radiometric-based scintillation proximity assay
[31] = AUC (0 to 24 hrs) in male Sprague-Dawley rat at 10 mg/kg, po administered as single dose by LC-MS/MS analysis; assay type: ADME, organism-based; details: in vivo
[32] = test system: MCF7; assay: Induction of apoptosis in human MCF7 cells assessed as live cells at 3.75 uM measured after 48 hrs by Annexin V-FITC staining based flow cytometry analysis (reference value: 99.26%); assay type: functional
[33] = test system: MCF7; assay: Induction of apoptosis in human MCF7 cells assessed as early apoptotic cells at 3.75 uM measured after 48 hrs by Annexin V-FITC staining based flow cytometry analysis (reference value: 0.58%); assay type: functional
[34] = Half life in male Sprague-Dawley rat at 10 mg/kg, po administered as single dose by LC-MS/MS analysis; assay type: ADME, organism-based; details: in vivo
[35] = Volume of distribution in male Sprague-Dawley rat at 10 mg/kg, po administered as single dose by LC-MS/MS analysis; assay type: ADME, organism-based; details: in vivo
[36] = test system: MCF7; assay: Induction of apoptosis in human MCF7 cells assessed as live cells at 7.5 uM measured after 48 hrs by Annexin V-FITC staining based flow cytometry analysis (reference value: 99.26%); assay type: functional
[37] = Half life in male Sprague-Dawley rat at 2 mg/kg, iv administered via tail vein by LC-MS/MS analysis; assay type: ADME, organism-based; details: in vivo
[38] = AUC (0 to 24 hrs) in male Sprague-Dawley rat at 2 mg/kg, iv administered via tail vein by LC-MS/MS analysis; assay type: ADME, organism-based; details: in vivo
[39] = test system: MCF7; assay: Induction of apoptosis in human MCF7 cells assessed as dead cells at 7.5 uM measured after 48 hrs by Annexin V-FITC staining based flow cytometry analysis (reference value: 0.02%); assay type: functional
[40] = test system: MCF7; assay: Induction of cell cycle arrest in human MCF7 cells assessed as accumulation of cells at G1 phase at 3.75 uM incubated for 48 hrs by PI/RNase staining based flow cytometry analysis (reference value: 48.01%); assay type: functional
[41] = Tmax in male Sprague-Dawley rat at 10 mg/kg, po administered as single dose by LC-MS/MS analysis; assay type: ADME, organism-based; details: in vivo
[42] = Metabolic stability in rat liver microsomes assessed as compound remaining at […] measured after 30 mins in presence of NADPH by LC-MS/MS analysis; assay type: ADME, Microsome; details: read-out: Stability
[43] = test system: A549; assay: Antiproliferative activity against human A549 cells assessed as inhibition of cell growth by CCK-8 assay
[44] = Oral bioavailability in male Sprague-Dawley rat at 10 mg/kg administered as single dose by LC-MS/MS analysis; assay type: ADME, organism-based; details: in vivo
[45] = Clearance in male Sprague-Dawley rat at 2 mg/kg, iv administered via tail vein by LC-MS/MS analysis; assay type: ADME, organism-based; details: in vivo

T1 sequence (O14744 whole entry): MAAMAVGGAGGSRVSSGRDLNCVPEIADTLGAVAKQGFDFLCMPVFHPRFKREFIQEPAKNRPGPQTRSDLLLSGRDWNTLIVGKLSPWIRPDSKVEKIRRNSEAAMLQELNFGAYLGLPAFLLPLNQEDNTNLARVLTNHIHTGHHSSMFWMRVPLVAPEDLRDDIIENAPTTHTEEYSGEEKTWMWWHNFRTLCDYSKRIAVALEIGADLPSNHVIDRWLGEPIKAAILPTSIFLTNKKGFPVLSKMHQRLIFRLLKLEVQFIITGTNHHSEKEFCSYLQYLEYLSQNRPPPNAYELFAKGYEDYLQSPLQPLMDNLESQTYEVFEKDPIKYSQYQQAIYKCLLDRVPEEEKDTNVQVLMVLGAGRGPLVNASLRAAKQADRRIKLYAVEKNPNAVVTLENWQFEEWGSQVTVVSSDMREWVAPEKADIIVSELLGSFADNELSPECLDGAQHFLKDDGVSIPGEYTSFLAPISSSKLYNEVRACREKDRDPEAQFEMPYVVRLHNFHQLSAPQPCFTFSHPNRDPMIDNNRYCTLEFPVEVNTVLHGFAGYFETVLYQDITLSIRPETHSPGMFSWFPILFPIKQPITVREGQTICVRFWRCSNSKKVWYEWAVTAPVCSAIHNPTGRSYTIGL
Chain of Protein arginine N-methyltransferase 1 (Q99873 whole entry): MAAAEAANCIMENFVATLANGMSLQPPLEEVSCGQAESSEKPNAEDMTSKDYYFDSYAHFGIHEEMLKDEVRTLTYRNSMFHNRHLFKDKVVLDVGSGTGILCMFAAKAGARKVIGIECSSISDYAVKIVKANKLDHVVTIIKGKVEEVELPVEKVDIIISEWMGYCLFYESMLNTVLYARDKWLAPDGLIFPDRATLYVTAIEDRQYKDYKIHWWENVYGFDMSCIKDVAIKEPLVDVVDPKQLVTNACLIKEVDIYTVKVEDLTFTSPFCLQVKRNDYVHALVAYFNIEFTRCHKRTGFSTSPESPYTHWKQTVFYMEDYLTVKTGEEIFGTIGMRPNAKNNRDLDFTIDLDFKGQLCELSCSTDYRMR
Chain of Receptor tyrosine-protein kinase erbB-4 (Q15303 whole entry, the tested form may be a part): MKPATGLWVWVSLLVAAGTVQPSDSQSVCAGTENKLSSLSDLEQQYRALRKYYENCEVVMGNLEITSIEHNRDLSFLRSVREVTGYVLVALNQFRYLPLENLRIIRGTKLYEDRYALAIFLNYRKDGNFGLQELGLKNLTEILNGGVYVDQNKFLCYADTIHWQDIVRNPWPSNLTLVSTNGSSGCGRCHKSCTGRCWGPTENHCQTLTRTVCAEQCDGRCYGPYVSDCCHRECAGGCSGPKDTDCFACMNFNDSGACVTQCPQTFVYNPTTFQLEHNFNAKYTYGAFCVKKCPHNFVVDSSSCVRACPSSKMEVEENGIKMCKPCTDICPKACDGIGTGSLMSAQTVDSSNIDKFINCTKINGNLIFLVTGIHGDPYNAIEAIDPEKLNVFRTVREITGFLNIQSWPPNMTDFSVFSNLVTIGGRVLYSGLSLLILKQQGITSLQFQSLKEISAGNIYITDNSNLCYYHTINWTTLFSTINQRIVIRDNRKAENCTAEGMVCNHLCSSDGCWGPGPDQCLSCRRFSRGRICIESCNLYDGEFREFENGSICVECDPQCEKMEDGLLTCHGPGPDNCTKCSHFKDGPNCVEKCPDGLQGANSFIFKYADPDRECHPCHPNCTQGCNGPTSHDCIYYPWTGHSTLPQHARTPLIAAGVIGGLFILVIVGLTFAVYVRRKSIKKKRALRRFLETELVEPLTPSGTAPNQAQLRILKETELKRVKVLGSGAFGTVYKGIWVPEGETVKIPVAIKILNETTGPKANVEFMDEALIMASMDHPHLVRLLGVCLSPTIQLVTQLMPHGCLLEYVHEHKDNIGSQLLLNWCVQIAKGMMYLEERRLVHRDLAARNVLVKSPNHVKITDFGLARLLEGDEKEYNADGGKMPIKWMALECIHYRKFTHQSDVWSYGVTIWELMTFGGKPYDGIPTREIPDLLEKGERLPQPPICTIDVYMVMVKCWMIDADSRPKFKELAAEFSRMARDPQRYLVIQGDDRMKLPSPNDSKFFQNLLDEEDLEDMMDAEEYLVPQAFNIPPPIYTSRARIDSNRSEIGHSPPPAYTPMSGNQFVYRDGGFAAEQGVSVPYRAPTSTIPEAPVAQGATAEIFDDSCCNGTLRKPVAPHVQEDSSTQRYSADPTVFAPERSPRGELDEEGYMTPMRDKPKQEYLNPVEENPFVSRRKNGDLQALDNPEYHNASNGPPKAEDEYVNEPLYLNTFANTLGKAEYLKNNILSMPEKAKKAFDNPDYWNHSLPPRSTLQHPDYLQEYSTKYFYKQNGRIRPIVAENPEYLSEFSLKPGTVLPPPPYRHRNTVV

Work on COc1cc(C2NCCc3c2[nH]c2ccccc32)ccc1OCc1cc(C(F)(F)F)cc(C(F)(F)F)c1 (stereo not given) yielded an Activity [1] of 0.4%, an Activity [2] of 4.25% and a Cmax [3] of 167 ng/mL. For the same compound, the AUC(0-inf) [4] was 2110 ng·h/mL, the remaining at 0.5 h [5] was 85.9% and the Activity [6] was 40.55%. The Activity [7] was 0.37%, the Vd [8] was 10.8 L/kg and the IC50 [9] was 6.55 µM. The Activity [10] was 0.26%, the Activity [11] was 62.98% and the Activity [12] was 96.45%. For the same compound, the IC50 [13] was 5.74 µM, the Activity [14] was “Active” and the Activity [15] was 0.48%. For the same compound, the IC50 [16] was greater than 100 µM, the F [17] was 100% and the AUC(0-inf) [18] was 1330 ng·h/mL. It also gave an Activity [19] of 0.01%, an Activity [20] of 3.07% and an Activity [21] of 0.02%. For the same compound, the inhibition [22] was “Dose-Dependent Effect”, the Activity [23] was 36.77% and the IC50 [24] was 86.5 µM. It also gave an IC50 [25] of 25.4 µM, a CL/F [26] of 78.3 mL/min/kg and an IC50 [27] of 7.99 µM. For the same compound, the Cmax [28] was 187 ng/mL, the Activity [29] was 2.32% and the IC50 [30] was 15.5 µM. The AUC(0-t) [31] was 1960 ng·h/mL, the Activity [32] was 98.07% and the Activity [33] was 1.51%. For the same compound, the half-life [34] was 5.7 h, the Vd [35] was 38.5 L/kg and the Activity [36] was 97.31%. The half-life [37] was 4.9 h, the AUC(0-t) [38] was 1280 ng·h/mL and the Activity [39] was 0%. It also gave an Activity [40] of 54.85%, a Tmax [41] of 2 h and a remaining at 0.5 h [42] of 80.3%. For the same compound, the IC50 [43] was 9.76 µM, the bioavailability [44] was 30.6% and the clearance [45] was 25 mL/min/kg.
